Data: US20240417410A1, “TRICYCLIC COMPOUNDS FOR THE TREATMENT OF CANCER” (Hoffmann-La Roche Inc., priority 2023, published 2024)

Experiments:
[1] = test system: phosphorylation of ERK, KRAS G12D in AGS cells; test: pERK inhibition assay; assay type: cell-based; details: Homo sapiens, AGS, 4 h
Procedure, shortened: (§1)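 NCI-H358 (KRAS G12C), AGS (G12D) and SW620 (G12V) cells plated overnight, then treated with compound for 4 h in 0.5% DMSO. After fixing and methanol permeabilisation, phospho-ERK was detected by in-cell ELISA (HRP/TMB, OD450). IC50 from a 4-parameter sigmoidal fit.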

[2] = test system: phosphorylation of ERK, KRAS G12V in SW620; test: pERK inhibition assay; assay type: cell-based; details: Homo sapiens, SW-620, 4 h, SW620 cells
Procedure, shortened: as §1

[3] = test system: phosphorylation of ERK, KRAS G12C in NCI-H358 cells; test: pERK inhibition assay; assay type: cell-based; details: Homo sapiens, NCI-H358, 4 h
Procedure, shortened: as §1

[4] = biological target: KRAS G12C-BRAF complex (Homo sapiens (Human), UniProt P01116+P62937, G12C); test: KRAS-BRAF with CYPA (500 nM) interaction assay (TR-FRET, Example 136); assay type: biochemical; details: KRAS G12C-BRAF disruption
Chain of KRAS G12C-BRAF complex (P01116-2 other isoform, or with tags, fused parts or gaps G12C): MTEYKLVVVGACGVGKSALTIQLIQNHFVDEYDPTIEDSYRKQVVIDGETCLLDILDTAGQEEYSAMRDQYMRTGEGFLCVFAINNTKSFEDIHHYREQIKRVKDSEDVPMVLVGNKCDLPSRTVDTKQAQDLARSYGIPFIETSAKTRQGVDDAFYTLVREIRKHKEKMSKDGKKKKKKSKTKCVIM
Chain of KRAS G12C-BRAF complex (P62937 whole entry): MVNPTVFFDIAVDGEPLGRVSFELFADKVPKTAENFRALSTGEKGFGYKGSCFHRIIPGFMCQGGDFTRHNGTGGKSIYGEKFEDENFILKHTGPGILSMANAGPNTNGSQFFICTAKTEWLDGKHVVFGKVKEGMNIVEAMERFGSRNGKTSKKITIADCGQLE

[5] = test system: NCI-H358 cells (KRAS G12C); test: Cell viability assay (Cell Counting Kit-8, 3-day); assay type: cell-based, human; details: Homo sapiens, NCI-H358, 72 h, NCI-H358, 72 hrs incubation
Procedure, shortened: (§2)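 IC50 derived by 4-parameter sigmoidal fit of CCK-8 signal (OD450−OD650, 2 h development) after 72 h compound exposure in 0.5% DMSO. Seeding density was 5,000 cells/well for NCI-H358 and 2,000 cells/well for AGS and SW620, plated overnight before dosing.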

[6] = test system: SW620 cells (KRAS G12V); test: Cell viability assay (Cell Counting Kit-8, 3-day); assay type: cell-based, human; details: Homo sapiens, SW-620; SW620, 72 hrs incubation
Procedure, shortened: as §2

[7] = test system: AGS cells (KRAS G12D); test: Cell viability assay (Cell Counting Kit-8, 3-day); assay type: cell-based, human; details: Homo sapiens, 72 h, 72 hrs incubation
Procedure, shortened: as §2

Structure (SMILES): CO[C@@H](C)c1ncc(N2CCN(CC(F)(F)F)CC2)cc1-c1c2c3cc(cc4c3n1CCC4)-c1csc(n1)C[C@H](NC(=O)[C@H]1[C@@H]3COC[C@@H]31)C(=O)N1CCC[C@H](N1)C(=O)OCC(C)(C)C2 (atropisomer, axis not shown; (M)) [Example 13, (1S,5R,6r)-N-[(7S,13S)-(20M)-20-[2-[(1S)-1-methoxyethyl]-5-[4-(2,2,2-trifluoroethyl)piperazin-1-yl]-3-pyridyl]-17,17-dimethyl-8,14-dioxo-15-oxa-4-thia-9,21,30,31-tetrazahexacyclo[23.3.1.1^2,5.1^9,13.0^19,27.0^21,26]hentriaconta-1 (28),2,5 (31),19,25 (29),26-hexaen-7-yl]-3-oxabicyclo[3.1.0]hexane-6-carboxamide]
- IC50 [1]: 10.8 nM
- IC50 [2]: 1.5 nM
- IC50 [3]: 3 nM
- IC50 [4]: 1.5 nM
- IC50 [5]: 6.4 nM
- IC50 [6]: 0.7 nM
- IC50 [7]: 23 nM

Structure (SMILES): CO[C@@H](C)c1ncc(N2CCN(C)CC2)cc1-c1c2c3cc(cc4c3n1CC(F)(F)C4)-c1csc(n1)C[C@H](NC(=O)[C@H]1[C@@H]3COC[C@@H]31)C(=O)N1CCC[C@H](N1)C(=O)OCC(C)(C)C2 (atropisomer, axis not shown; (M)) [Example 60]
- IC50 [1]: 8.2 nM
- IC50 [2]: 0.9 nM
- IC50 [3]: 2.3 nM
- IC50 [4]: 15.2 nM
- IC50 [5]: 8.2 nM
- IC50 [6]: 1.7 nM
- IC50 [7]: 32 nM

Structure (SMILES): CO[C@@H](C)c1ncc(N2CCN(C)CC2)cc1-c1c2c3cc(cc4c3n1CCO4)-c1csc(n1)C[C@H](NC(=O)[C@H]1[C@H](C)[C@@H]1C)C(=O)N1CCC[C@H](N1)C(=O)OCC(C)(C)C2 (atropisomer, axis not shown; (M)) [Example 45, (1r,2S,3R)-N-[(7S,13S)-(20M)-20-[2-[(1S)-1-methoxyethyl]-5-(4-methylpiperazin-1-yl)-3-pyridyl]-17,17-dimethyl-8,14-dioxo-15,24-dioxa-4-thia-9,21,30,31-tetrazahexacyclo[23.3.1.1^2,5.1^9,13.0^19,27.0^21,26]hentriaconta-1 (28),2,5 (31),19,25 (29),26-hexaen-7-yl]-2,3-dimethyl-cyclopropanecarboxamide]
- IC50 [1]: 2.1 nM
- IC50 [2]: 0.2 nM
- IC50 [3]: 0.6 nM
- IC50 [4]: 14.1 nM
- IC50 [5]: 1.8 nM
- IC50 [6]: 0.2 nM
- IC50 [7]: 3.6 nM

Structure (SMILES): CO[C@@H](C)c1ncc(N2CCN(C)CC2)cc1-c1c2c3cc(cc4c3n1CCO4)-c1csc(n1)C[C@H](NC(=O)[C@H]1C[C@@H]1c1cncnc1)C(=O)N1CCC[C@H](N1)C(=O)OCC(C)(C)C2 (atropisomer, axis not shown; (M)) [Example 93, (1S,2S)-N-[(7S,13S)-(20M)-20-[2-[(1S)-1-methoxyethyl]-5-(4-methylpiperazin-1-yl)-3-pyridyl]-17,17-dimethyl-8,14-dioxo-15,24-dioxa-4-thia-9,21,30,31-tetrazahexacyclo[23.3.1.1^2,5.1^9,13.0^19,27.0^21,26]hentriaconta-1 (28),2,5 (31), 19,25 (29),26-hexaen-7-yl]-2-pyrimidin-5-yl-cyclopropanecarboxamide]
- IC50 [1]: 3.5 nM
- IC50 [2]: 1.2 nM
- IC50 [3]: 1.2 nM
- IC50 [4]: 14.8 nM
- IC50 [5]: 3 nM
- IC50 [6]: 1 nM
- IC50 [7]: 5 nM

Structure (SMILES): CCN1CCN(c2cnc([C@H](C)OC)c(-c3c4c5cc(cc6c5n3CCC6)-c3csc(n3)C[C@H](NC(=O)[C@H]3[C@H](C)[C@@H]3C)C(=O)N3CCC[C@H](N3)C(=O)OCC(C)(C)C4)c2)CC1 (atropisomer, axis not shown; (M)) [Example 113, (1r,2R,3S)-N-[(7S,13S)-(20M)-20-[5-(4-ethylpiperazin-1-yl)-2-[(1S)-1-methoxyethyl]-3-pyridyl]-17,17-dimethyl-8,14-dioxo-15-oxa-4-thia-9,21,30,31-tetrazahexacyclo[23.3.1.1^2,5.1^9,13.0^19,27.0^21,26]hentriaconta-1 (28),2,5 (31), 19,25 (29),26-hexaen-7-yl]-2,3-dimethyl-cyclopropanecarboxamide]
- IC50 [1]: 2.2 nM
- IC50 [2]: 0.4 nM
- IC50 [3]: 0.6 nM
- IC50 [4]: 4.3 nM
- IC50 [5]: 2.1 nM
- IC50 [6]: 0.3 nM
- IC50 [7]: 1.5 nM

Structure (SMILES): CO[C@@H](C)c1ncc(N2CCN(C)CC2)cc1-c1c2c3cc(cc4c3n1CCC4)-c1csc(n1)C[C@H](NC(=O)[C@H]1C[C@@H]1c1cccnc1)C(=O)N1CCC[C@H](N1)C(=O)OCC(C)(C)C2 (atropisomer, axis not shown; (M)) [Example 56, (1S,2S)-N-[(7S,13S)-(20M)-20-[2-[(1S)-1-methoxyethyl]-5-(4-methylpiperazin-1-yl)-3-pyridyl]-17,17-dimethyl-8,14-dioxo-15-oxa-4-thia-9,21,30,31-tetrazahexacyclo[23.3.1.1^2,5.1^9,13.0^19,27.0^21,26]hentriaconta-1 (28),2,5 (31), 19,25 (29),26-hexaen-7-yl]-2-(3-pyridyl)cyclopropanecarboxamide]
- IC50 [1]: 2.7 nM
- IC50 [2]: 0.6 nM
- IC50 [3]: 0.8 nM
- IC50 [4]: 10.3 nM
- IC50 [5]: 1.2 nM
- IC50 [6]: 0.3 nM
- IC50 [7]: 5.2 nM

Structure (SMILES): CO[C@@H](C)c1ncc(N2CCN(C)CC2)cc1-c1c2c3cc(cc4c3n1CCC4)-c1csc(n1)C[C@H](NC(=O)[C@H]1C[C@@H]1C)C(=O)N1CCC[C@H](N1)C(=O)OCC(C)(C)C2 (atropisomer, axis not shown; (M)) [Example 2, (1S,2S)-N-[(7S,13S)-(20M)-20-[2-[(1S)-1-methoxyethyl]-5-(4-methylpiperazin-1-yl)-3-pyridyl]-17,17-dimethyl-8,14-dioxo-15-oxa-4-thia-9,21,30,31-tetrazahexacyclo[23.3.1.1^2,5.1^9,13.0^19,27.0^21,26]hentriaconta-1 (28),2,5 (31), 19,25 (29),26-hexaen-7-yl]-2-methyl-cyclopropanecarboxamide]
- IC50 [1]: 3 nM
- IC50 [2]: 1.4 nM
- IC50 [3]: 3.4 nM
- IC50 [4]: 28.8 nM
- IC50 [5]: 10.1 nM
- IC50 [6]: 1.2 nM
- IC50 [7]: 29.9 nM

Structure (SMILES): CO[C@@H](C)c1ncc(N2CCN(CC(F)F)CC2)cc1-c1c2c3cc(cc4c3n1CCC4)-c1csc(n1)C[C@H](NC(=O)[C@H]1[C@H](C)[C@@H]1C)C(=O)N1CCC[C@H](N1)C(=O)OCC(C)(C)C2 (atropisomer, axis not shown) [Example 109, (1r,2R,3S)-N-[(7S,13S)-20-[5-[4-(2,2-difluoroethyl)piperazin-1-yl]-2-[(1S)-1-methoxyethyl]-3-pyridyl]-17,17-dimethyl-8,14-dioxo-15-oxa-4-thia-9,21,30,31-tetrazahexacyclo[23.3.1.1^2,5.1^9,13.0^19,27.0^21,26]hentriaconta-1 (28),2,5 (31), 19,25 (29),26-hexaen-7-yl]-2,3-dimethyl-cyclopropanecarboxamide]
- IC50 [1]: 4.1 nM
- IC50 [2]: 0.3 nM
- IC50 [3]: 0.9 nM
- IC50 [4]: 6 nM
- IC50 [5]: 2.8 nM
- IC50 [6]: 0.6 nM
- IC50 [7]: 5.1 nM

Structure (SMILES): CO[C@@H](C)c1ncc(N2CCN(C)CC2)cc1-c1c2c3cc(cc4c3n1CCC4)-c1csc(n1)C[C@H](NC(=O)[C@H]1C[C@@H]1C(F)F)C(=O)N1CCC[C@H](N1)C(=O)OCC(C)(C)C2 (atropisomer, axis not shown; (M)) [Example 14, (1S,2S)-2-(difluoromethyl)-N-[(7S,13S)-(20M)-20-[2-[(1S)-1-methoxyethyl]-5-(4-methylpiperazin-1-yl)-3-pyridyl]-17,17-dimethyl-8,14-dioxo-15-oxa-4-thia-9,21,30,31-tetrazahexacyclo[23.3.1.1^2,5.1^9,13.0^19,27.0^21,26]hentriaconta-1 (28),2,5 (31),19,25 (29),26-hexaen-7-yl]cyclopropanecarboxamide]
- IC50 [1]: 5.6 nM
- IC50 [2]: 0.7 nM
- IC50 [3]: 0.8 nM
- IC50 [4]: 22.2 nM
- IC50 [5]: 3.6 nM
- IC50 [6]: 1 nM
- IC50 [7]: 17.5 nM

Structure (SMILES): CO[C@@H](C)c1ncc(N2CCN(C)CC2)cc1-c1c2c3cc(cc4c3n1CCC4)-c1csc(n1)C[C@H](NC(=O)[C@H]1C[C@@H]1c1cccnn1)C(=O)N1CCC[C@H](N1)C(=O)OCC(C)(C)C2 (atropisomer, axis not shown; (M)) [Example 63, (1S,2S)-N-[(7S,13S)-(20M)-20-[2-[(1S)-1-methoxyethyl]-5-(4-methylpiperazin-1-yl)-3-pyridyl]-17,17-dimethyl-8,14-dioxo-15-oxa-4-thia-9,21,30,31-tetrazahexacyclo[23.3.1.1^2,5.1^9,13.0^19,27.0^21,26]hentriaconta-1 (28),2,5 (31), 19,25 (29),26-hexaen-7-yl]-2-pyridazin-3-yl-cyclopropanecarboxamide]
- IC50 [1]: 18.3 nM
- IC50 [2]: 3 nM
- IC50 [3]: 5.1 nM
- IC50 [4]: 34 nM
- IC50 [5]: 10.6 nM
- IC50 [6]: 4.2 nM
- IC50 [7]: 78 nM
